Measured values as given in ChEMBL document CHEMBL1201862, “PubChem BioAssay data set” (2004).
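Values below derive from 48-hour exposures of cells grown in 96-well plates, with endpoints linearly interpolated between the two concentrations bracketing the appropriate inhibition level. At the GI50, growth is halved.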 Active and inactive are the calls of the source. Rule as the data show it: active = GI50 up to about 1.1 µM and inactive = higher.

Columns and labels:
Assay in all cases: growth of human tumour cells (NCI), 48 h
KM12 = system: KM12
CCRF-CEM = system: CCRF-CEM
HL-60 = system: HL-60
UACC-62 = system: UACC-62
SNB-19 = system: SNB-19
OVCAR-3 = system: OVCAR-3
TK-10 = system: TK-10
HOP-62 = system: HOP-62
NCI-H460 = system: NCI-H460
SK-OV-3 = system: SK-OV-3
SN12C = system: SN12C
UACC-257 = system: UACC-257
IGROV-1 = system: IGROV-1
COLO 205 = system: COLO 205
M14 = system: M14
K562 = system: K562
RPMI-8226 = system: RPMI-8226
HCC 2998 = system: HCC 2998
SF-539 = system: SF-539
SF-268 = system: SF-268

Row | Structure (SMILES) | GI50 (KM12) | GI50 (CCRF-CEM) | GI50 (HL-60) | GI50 (UACC-62) | GI50 (SNB-19) | GI50 (OVCAR-3) | GI50 (TK-10) | GI50 (HOP-62) | GI50 (NCI-H460) | GI50 (SK-OV-3) | GI50 (SN12C) | GI50 (UACC-257) | GI50 (IGROV-1) | GI50 (COLO 205) | GI50 (M14) | GI50 (K562) | GI50 (RPMI-8226) | GI50 (HCC 2998) | GI50 (SF-539) | GI50 (SF-268)
1 | O=C(N/N=C\c1cccc2ccccc12)Nc1ccccc1 | > 100 µM (inactive) | > 100 µM (inactive) | > 10 µM (inactive) | > 100 µM (inactive) | > 100 µM (inactive) | > 100 µM (inactive) | > 100 µM (inactive) | > 100 µM (inactive) | > 100 µM (inactive) | > 100 µM (inactive) | > 100 µM (inactive) | > 100 µM (inactive) | > 100 µM (inactive) | > 100 µM (inactive) | > 100 µM (inactive) | > 100 µM (inactive) | > 100 µM (inactive) | – | – | –
2 | Cc1c2cc[n+](C)cc2c(C)c2c1[nH]c1ccccc12 | 0.402 µM (active) | 2.33 µM (inactive) | 9.62 µM (inactive) | 4.5 µM (inactive) | 0.274 µM (active) | 2.99 µM (inactive) | – | 0.441 µM (active) | 2.06 µM (inactive) | 6.67 µM (inactive) | 0.16 µM (active) | 5.97 µM (inactive) | 3.44 µM (inactive) | 0.665 µM (active) | – | 2.79 µM (inactive) | 8.49 µM (inactive) | 3.49 µM (inactive) | 0.468 µM (active) | 0.408 µM (active)
3 | CCCCCCCCCOCC(COP(=O)([O-])OCC[N+](C)(C)C)OC (stereo not given) | > 100 µM (inactive) | > 100 µM (inactive) | > 100 µM (inactive) | > 100 µM (inactive) | > 100 µM (inactive) | > 100 µM (inactive) | – | > 100 µM (inactive) | > 100 µM (inactive) | > 100 µM (inactive) | > 100 µM (inactive) | > 100 µM (inactive) | > 65.6 µM (inactive) | > 100 µM (inactive) | – | > 100 µM (inactive) | > 100 µM (inactive) | > 100 µM (inactive) | > 100 µM (inactive) | > 100 µM (inactive)
4 | CC(C)NC(=O)OCc1c2c(n(C)c1COC(=O)NC(C)C)-c1ccccc1CC2 | 15.5 µM (inactive) | 2.07 µM (inactive) | 2.55 µM (inactive) | 12.7 µM (inactive) | 14.6 µM (inactive) | 14.2 µM (inactive) | – | 13 µM (inactive) | 14.1 µM (inactive) | 15.7 µM (inactive) | 13 µM (inactive) | 15.2 µM (inactive) | 14 µM (inactive) | 8.05 µM (inactive) | – | 4.26 µM (inactive) | 3.23 µM (inactive) | 13.1 µM (inactive) | 15.4 µM (inactive) | 10.2 µM (inactive)
5 | O=[PH](O)c1cccs1 | – | > 100 µM (inactive) | > 100 µM (inactive) | > 100 µM (inactive) | > 100 µM (inactive) | – | > 100 µM (inactive) | – | > 100 µM (inactive) | > 100 µM (inactive) | > 100 µM (inactive) | – | > 100 µM (inactive) | > 100 µM (inactive) | > 100 µM (inactive) | > 100 µM (inactive) | > 100 µM (inactive) | – | > 100 µM (inactive) | > 100 µM (inactive)
6 | O=C1N[C@@H]2C(=C[C@H](O)[C@@H](O)[C@H]2O)c2cc3c(c(O)c21)OCO3 [NARCICLASINE] | 0.045 µM (active) | 0.045 µM (active) | 0.0646 µM (active) | 0.045 µM (active) | 0.045 µM (active) | 0.045 µM (active) | – | 0.045 µM (active) | 0.045 µM (active) | 0.045 µM (active) | 0.045 µM (active) | 0.045 µM (active) | 0.045 µM (active) | – | – | 0.045 µM (active) | 0.045 µM (active) | 0.045 µM (active) | 0.045 µM (active) | 0.045 µM (active)
7 | NS(=O)(=O)C1CCCCC1C(=O)NNC(=O)C(=O)Nc1nnc(S)[nH]1 (stereo not given) | > 100 µM (inactive) | > 100 µM (inactive) | > 100 µM (inactive) | > 100 µM (inactive) | > 100 µM (inactive) | – | > 100 µM (inactive) | > 100 µM (inactive) | > 100 µM (inactive) | > 100 µM (inactive) | > 100 µM (inactive) | > 100 µM (inactive) | > 100 µM (inactive) | > 100 µM (inactive) | > 100 µM (inactive) | > 100 µM (inactive) | > 100 µM (inactive) | > 100 µM (inactive) | > 100 µM (inactive) | > 100 µM (inactive)
8 | CO/N=C1/c2sccc2[C@H](NC(=O)C(F)(F)F)[C@@H]1O | – | > 100 µM (inactive) | > 100 µM (inactive) | > 100 µM (inactive) | – | > 100 µM (inactive) | > 100 µM (inactive) | > 100 µM (inactive) | > 100 µM (inactive) | > 100 µM (inactive) | > 100 µM (inactive) | > 100 µM (inactive) | > 100 µM (inactive) | > 100 µM (inactive) | > 100 µM (inactive) | > 100 µM (inactive) | – | > 100 µM (inactive) | > 100 µM (inactive) | > 100 µM (inactive)
9 | CCCOC1OC(CS(=O)(=O)O)C(OC(C)=O)C(OC(C)=O)C1OC(C)=O (stereo not given) | > 100 µM (inactive) | > 100 µM (inactive) | > 100 µM (inactive) | > 100 µM (inactive) | > 100 µM (inactive) | > 100 µM (inactive) | > 100 µM (inactive) | > 100 µM (inactive) | > 100 µM (inactive) | > 100 µM (inactive) | > 100 µM (inactive) | > 100 µM (inactive) | > 100 µM (inactive) | > 100 µM (inactive) | > 100 µM (inactive) | > 100 µM (inactive) | > 100 µM (inactive) | > 100 µM (inactive) | – | –
10 | COC(=O)Cc1c(-c2c(CC(=O)OC)c3ccccc3n2C2OC(COC(C)=O)C(OC(C)=O)C(OC(C)=O)C2OC(C)=O)[nH]c2ccccc12 (stereo not given) | 85.3 µM (inactive) | > 100 µM (inactive) | – | > 100 µM (inactive) | > 100 µM (inactive) | > 100 µM (inactive) | > 100 µM (inactive) | > 100 µM (inactive) | > 100 µM (inactive) | > 100 µM (inactive) | > 100 µM (inactive) | > 100 µM (inactive) | 74.6 µM (inactive) | > 100 µM (inactive) | > 100 µM (inactive) | – | > 100 µM (inactive) | > 100 µM (inactive) | – | > 100 µM (inactive)
11 | CC(=O)CC(=O)CCC(=O)O [SUCCINYLACETONE] | 47.4 µM (inactive) | – | > 100 µM (inactive) | – | > 100 µM (inactive) | – | > 100 µM (inactive) | – | > 100 µM (inactive) | > 100 µM (inactive) | > 100 µM (inactive) | > 100 µM (inactive) | > 100 µM (inactive) | > 100 µM (inactive) | > 100 µM (inactive) | > 100 µM (inactive) | – | > 100 µM (inactive) | > 100 µM (inactive) | > 100 µM (inactive)
12 | Oc1ccc(/C=C/c2cc(O)cc(O)c2)cc1 [RESVERATROL] | 31.9 µM (inactive) | – | 20.4 µM (inactive) | 41.2 µM (inactive) | > 100 µM (inactive) | > 100 µM (inactive) | > 100 µM (inactive) | 92 µM (inactive) | 42.1 µM (inactive) | 79.3 µM (inactive) | 42.8 µM (inactive) | > 100 µM (inactive) | – | – | 49.8 µM (inactive) | – | 8.63 µM (inactive) | 62.4 µM (inactive) | 29.6 µM (inactive) | > 100 µM (inactive)
13 | CCCCCCc1ccc(O)cc1O [HEXYLRESORCINOL] | 62.2 µM (inactive) | 32 µM (inactive) | 30.8 µM (inactive) | 34.4 µM (inactive) | 43.7 µM (inactive) | 36.4 µM (inactive) | – | 57.8 µM (inactive) | 58.3 µM (inactive) | > 100 µM (inactive) | 66.4 µM (inactive) | 39.5 µM (inactive) | 45.5 µM (inactive) | > 100 µM (inactive) | – | 44.8 µM (inactive) | 32.1 µM (inactive) | > 100 µM (inactive) | > 80.7 µM (inactive) | 87.3 µM (inactive)
14 | CCCCCCCCCCCCCCCC(=O)OC1C(O)C(CO)OC(OC)C1NC(=O)N(CCCl)N=O (stereo not given) | 16.5 µM (inactive) | – | – | 2 µM (inactive) | 10.4 µM (inactive) | 18.7 µM (inactive) | 15.5 µM (inactive) | 15.4 µM (inactive) | 3.78 µM (inactive) | – | – | 16.3 µM (inactive) | 17.4 µM (inactive) | 18.7 µM (inactive) | 18.4 µM (inactive) | 22.3 µM (inactive) | 21.1 µM (inactive) | – | 1.08 µM (active) | 2.64 µM (inactive)
15 | Cc1ccc(S(=O)(=O)NCCCSCCSCCCN)cc1 | > 100 µM (inactive) | > 100 µM (inactive) | > 100 µM (inactive) | – | > 100 µM (inactive) | > 100 µM (inactive) | > 100 µM (inactive) | – | > 100 µM (inactive) | > 100 µM (inactive) | > 100 µM (inactive) | > 100 µM (inactive) | – | > 100 µM (inactive) | > 100 µM (inactive) | > 100 µM (inactive) | – | > 100 µM (inactive) | – | > 100 µM (inactive)
16 | C=CCn1c(=O)c(Br)nn(CCOCP(=O)(OCC)OCC)c1=O | > 100 µM (inactive) | > 100 µM (inactive) | > 100 µM (inactive) | – | > 100 µM (inactive) | > 100 µM (inactive) | – | > 100 µM (inactive) | > 100 µM (inactive) | – | > 100 µM (inactive) | > 100 µM (inactive) | > 100 µM (inactive) | > 100 µM (inactive) | > 100 µM (inactive) | > 100 µM (inactive) | > 100 µM (inactive) | > 100 µM (inactive) | > 100 µM (inactive) | > 100 µM (inactive)
